Experimental data from patent publication US9650395B2, “Antibacterial compounds and methods for use” (PTC Therapeutics, Inc., priority 2011, dated 2017).
Counter-ions that a name gives are not always drawn. Like-named read-outs stand apart in the source and are kept apart here.

What was measured:
[1] = system: Acinetobacter baumannii (A. baumannii) BAA747; assay: Antibacterial activity, MIC, A. baumannii BAA747; assay type: cell-based; details: A. baumannii BAA747; for MIC: Acinetobacter baumannii, read-out: MIC BAA747
[2] = system: Pseudomonas aeruginosa (P. aeruginosa) 27853; assay: Antibacterial activity, MIC, P. aeruginosa 27853; assay type: cell-based; details: P. aeruginosa 27853
Text: (§1) The antibacterial activity from a microbroth dilution method may be presented as the minimum inhibitory concentration (MIC in […]). The MIC value is the lowest concentration of a drug which prevents macroscopically visible bacterial growth under test conditions.
Antibacterial activity of test compounds against the Gram-negative bacterium Pseudomonas aeruginosa (P. aeruginosa) 27853 is shown in Table 5.

[3] = system: resistant K. pneumoniae MXX1232 (MDR clinical isolate); assay: Antibacterial activity, MIC, resistant K. pneumoniae MXX1232; assay type: cell-based, Klebsiella pneumoniae; details: resistant K. pneumoniae MMX1232, MDR clinical isolate; for MIC: Klebsiella pneumoniae, read-out: MIC MMX1232
[4] = system: Gram-positive Staphylococcus aureus (S. aureus) 29213; assay: Antibacterial activity, microbroth dilution MIC, S. aureus 29213; assay type: cell-based; details: S. aureus 29213, microbroth dilution; for MIC: Staphylococcus aureus, read-out: MIC, 29213
[5] = system: quinolone resistant E. coli LZ3111; assay: Antibacterial activity, MIC, quinolone resistant E. coli LZ3111; assay type: cell-based, Escherichia coli; details: for MIC: Escherichia coli, read-out: MIC, LZ3111
Text: as §1
Mutations in these regions are known to confer a high level resistance to the quinolone class of antibiotics.

[6] = system: control Gram-negative E. coli 25922 strain; assay: Antibacterial activity, microbroth dilution MIC, E. coli 25922; assay type: cell-based, Escherichia coli; details: E. coli 25922, microbroth dilution; for MIC: Escherichia coli, read-out: MIC, 25922
[7] = system: Klebsiella pneumoniae (K. pneumoniae) 35657; assay: Antibacterial activity, MIC, K. pneumoniae 35657; assay type: cell-based; details: for MIC: Klebsiella pneumoniae
[8] = system: super sensitive Gram-negative Escherichia coli (E. coli) BAS849; assay: Antibacterial activity, microbroth dilution MIC, E. coli BAS849; assay type: cell-based; details: for MIC: Escherichia coli, read-out: MIC, BAS849
[9] = system: Moraxella catarrhalis (M. catarrhalis) 25238; assay: Antibacterial activity, MIC, M. catarrhalis 25238; assay type: cell-based; details: M. catarrhalis 25238
[10] = system: E. coli ELZ4251 (MDR clinical isolate); assay: Antibacterial activity, MIC, MDR E. coli ELZ4251; assay type: cell-based, Escherichia coli; details: E. coli ELZ4251, MDR clinical isolate
[11] = system: resistant A. baumannii MXX2240 (MDR clinical isolate); assay: Antibacterial activity, MIC, resistant A. baumannii MXX2240; assay type: cell-based, Acinetobacter baumannii; details: resistant A. baumannii MMX2240, MDR clinical isolate
various organisms = assay: Microdilution checkerboard method, combination with ciprofloxacin (MIC and FIC); assay type: cell-based; details: single agent
[12] = system: Haemophilus influenzae (H. influenzae) 49247; assay: Antibacterial activity, MIC, H. influenzae 49247; assay type: cell-based; details: H. influenzae 49247
How it was run: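 Antibacterial activity against the Gram-negative organism Haemophilus influenzae strain 49247 was measured by microbroth dilution. The minimum inhibitory concentration (MIC) was taken as the lowest drug concentration that stopped bacterial growth from being visible to the naked eye under the test conditions.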

[13] = system: E. coli ELZ4000 (MDR clinical isolate); assay: Antibacterial activity, MIC, MDR E. coli ELZ4000; assay type: cell-based, Escherichia coli; details: E. coli ELZ4000, MDR clinical isolate
[14] = system: Neisseria meningitidis (N. meningitidis) 13090; assay: Antibacterial activity, MIC, N. meningitidis 13090; assay type: cell-based; details: N. meningitidis 13090
[15] = E. coli BAS849, microbroth dilution
[16] = Acinetobacter baumannii, A. baumannii (MDR)
[17] = Acinetobacter baumannii, BAA747, A. baumannii BAA747
[18] = Escherichia coli, E. coli 25922
[19] = Klebsiella pneumoniae, K. pneumoniae 35657
[20] = Pseudomonas aeruginosa, P. aeruginosa 27853
[21] = Staphylococcus aureus, S. aureus 29213
[22] = Staphylococcus aureus, S. aureus (MDR)

Row | Structure (SMILES) | MIC [1] [µg/mL] | MIC [3] [µg/mL] | MIC [4] [µg/mL] | MIC [5] [µg/mL] | MIC [6] [µg/mL] | MIC [7] [µg/mL] | MIC (various organisms; [16]) [µg/mL] | MIC (various organisms; [17]) [µg/mL] | MIC (various organisms; Escherichia coli, E. coli 3111) [µg/mL] | MIC (various organisms; [18]) [µg/mL] | MIC (various organisms; [19]) [µg/mL] | MIC (various organisms; [20]) [µg/mL] | MIC (various organisms; [21]) [µg/mL] | MIC (various organisms; [22]) [µg/mL] | also measured
1 | CCc1c(-c2ccc(N3C[C@@H]4[C@@H](N)[C@@H]4C3)cc2)[nH]c(=O)c(C(=O)O)c1O [Cpd 269, 6-{4-[(1R,5S,6s)-6-amino-3-azabicyclo[3.1.0]hex-3-yl]phenyl}-5-ethyl-4-hydroxy-2-oxo-1,2-dihydropyridine-3-carboxylic acid hydrochloride] | < 1 | 12.5 to 150 | 3.5 to 12.5 | 3.5 to 12.5 | < 1 | < 1 | 12.5 | 0.39 | 3.1 | 0.19 | 0.39 | 1.6 | 3.12 | 6.2 | MIC 27853 ([2]; hydrochloride): *** (an MIC value between >1.0 μg/mL and ≦3.5 μg/mL is indicated by three stars (***)); MIC [8, 15]: < 1 µg/mL; MIC 25238 ([9]; hydrochloride): **** (an MIC value of ≦1.0 μg/mL is indicated by four stars (****)); MIC ELZ4251 ([10]; hydrochloride): * (an MIC value between >12.5 μg/mL and ≦150 μg/mL is indicated by a single star (*)); MIC MMX2240 ([11]; hydrochloride): ** (an MIC value between >3.5 μg/mL and ≦12.5 μg/mL is indicated by two stars (**))
2 | O=C(O)c1cn(C2CC2)c2cc(N3CCNCC3)c(F)cc2c1=O [Cipro, ciprofloxacin, reference compound] | – | – | – | – | – | – | 125 | 0.098 | 125 | 0.013 | 0.01 | 0.2 | 0.39 | 31.2 | –
3 | Cc1c(-c2ccc(N3C[C@@H]4[C@@H](N)[C@@H]4C3)cc2)[nH]c(=O)c(C(=O)O)c1O.Cl [Cpd 259, 6-{4-[(1R,5S,6s)-6-amino-3-azabicyclo[3.1.0]hex-3-yl]phenyl}-4-hydroxy-5-methyl-2-oxo-1,2-dihydropyridine-3-carboxylic acid hydrochloride] | – | – | – | – | – | – | – | – | – | – | – | – | – | – | MIC BAA747 [1]: ** (an MIC value between >3.5 μg/mL and ≦12.5 μg/mL is indicated by two stars (**)); MIC 49247 [12]: *** (an MIC value between >1.0 μg/mL and ≦3.5 μg/mL is indicated by three stars (***)); MIC 27853 [2]: * (an MIC value between >12.5 μg/mL and ≦150 μg/mL is indicated by a single star (*)); MIC ELZ4000 [13]: ** (an MIC value between >3.5 μg/mL and ≦12.5 μg/mL is indicated by two stars (**)); MIC MMX1232 [3]: * (an MIC value between >12.5 μg/mL and ≦150 μg/mL is indicated by a single star (*)); MIC, 29213 [4]: * (an MIC value between >12.5 μg/mL and ≦150 μg/mL is indicated by a single star (*)); MIC, LZ3111 ([5]; quinolone resistant E. coli LZ3111): *** (an MIC value between >1.0 μg/mL and ≦3.5 μg/mL is indicated by three stars (***)); MIC, 25922 [6]: *** (an MIC value between >1.0 μg/mL and ≦3.5 μg/mL is indicated by three stars (***)); MIC 35657 [7]: *** (an MIC value between >1.0 μg/mL and ≦3.5 μg/mL is indicated by three stars (***)); MIC, BAS849 [8, 15]: **** (an MIC value of ≦1.0 μg/mL is indicated by four stars (****)); MIC 25238 [9]: ** (an MIC value between >3.5 μg/mL and ≦12.5 μg/mL is indicated by two stars (**)); MIC 13090 [14]: **** (an MIC value of ≦1.0 μg/mL is indicated by four stars (****)); MIC ELZ4251 [10]: ** (an MIC value between >3.5 μg/mL and ≦12.5 μg/mL is indicated by two stars (**)); MIC MMX2240 [11]: * (an MIC value between >12.5 μg/mL and ≦150 μg/mL is indicated by a single star (*))
4 | CCc1c(-c2ccc(N3C[C@H]4CC[C@H](N)[C@H]4C3)cc2)[nH]c(=O)c(C(=O)O)c1O.O=C(O)C(F)(F)F [Cpd 265, 6-{4-[(3aR,4S,6aS)-4-aminohexahydrocyclopenta[c]pyrrol-2(1H)-yl]phenyl}-5-ethyl-4-hydroxy-2-oxo-1,2-dihydropyridine-3-carboxylic acid trifluoroacetate] | 12.5 to 150 | 12.5 to 150 | 12.5 to 150 | 3.5 to 12.5 | 3.5 to 12.5 | 3.5 to 12.5 | – | – | – | – | – | – | – | – | MIC ([12]; Haemophilus influenzae, read-out: MIC 49247): 12.5 to 150 µg/mL; MIC ([2]; Pseudomonas aeruginosa, read-out: MIC 27853): 12.5 to 150 µg/mL; MIC ([13]; Escherichia coli, read-out: MIC ELZ4000): 12.5 to 150 µg/mL; MIC [8]: 1 to 3.5 µg/mL; MIC ([9]; Moraxella catarrhalis, read-out: MIC 25238): 3.5 to 12.5 µg/mL; MIC ([14]; Neisseria meningitidis, read-out: MIC 13090): 1 to 3.5 µg/mL; MIC ([10]; Escherichia coli, read-out: MIC ELZ4251): 3.5 to 12.5 µg/mL; MIC ([11]; Acinetobacter baumannii, read-out: MIC MMX2240): 12.5 to 150 µg/mL
